Usually IC50 stands for the point on the concentration scale where inhibition reaches its midpoint. The low end stands for greater potency in that assay, the high end for weaker potency in that assay.

Common to all, as to type: functional, cell-based
One test deals with 8505C. The test is described as follows: Cytotoxicity against human 8505C cells after 96 hrs by SRB assay.
Test [1] can be described thus: Cytotoxicity against human A253 cells after 96 hrs by SRB assay. (In general: Sulforhodamine B stains cellular protein and so reports cell mass.)
In a further test the test system is A2780. The test can be described thus: Cytotoxicity against human A2780 cells after 96 hrs by SRB assay.
The next test has as its system A549. The test is described as follows: Cytotoxicity against human A549 cells after 96 hrs by SRB assay.
For the next test, the system named is DLD-1. The test can be described thus: Cytotoxicity against human DLD1 cells after 96 hrs by SRB assay.
Test [2] is described as follows: Cytotoxicity against human Lipo cells after 96 hrs by SRB assay.
For the next test, the system named is MCF7. The test can be described thus: Cytotoxicity against human MCF7 cells after 96 hrs by SRB assay.
The subject of the next test is SW-1736. The test can be described thus: Cytotoxicity against human SW1736 cells after 96 hrs by SRB assay.

Consider `CC(C)OC(=O)[C@@]1(C)CC[C@]2(C)CC[C@]3(C)C(=CC(=O)[C@@H]4[C@@]5(C)CC[C@H](OC(=O)CN)C(C)(C)[C@@H]5CC[C@]43C)[C@@H]2C1`, for which the IC50 with 8505C (Homo sapiens, 8505C, 96 h) came to 2.76 µM; in test [1] (Homo sapiens, A253, 96 h), 2.01 µM; in the test on A2780 (Homo sapiens, A2780, 96 h) it was 2.24 µM; in the test on A549 (Homo sapiens, A549, 96 h), 2.65 µM; with DLD-1 (Homo sapiens, DLD-1, 96 h) it was 2.54 µM; in test [2] (Homo sapiens, Lipo, 96 h) it was 2.74 µM.

Turning to `CCOC(=O)[C@@]1(C)CC[C@]2(C)CC[C@]3(C)C(=CC(=O)[C@@H]4[C@@]5(C)CC[C@H](OC(=O)CCN)C(C)(C)[C@@H]5CC[C@]43C)[C@@H]2C1`, the IC50 worked out at 2.32 µM in the test with 8505C (Homo sapiens, 8505C, 96 h); 2.23 µM in test [1] (Homo sapiens, A253, 96 h); 1.77 µM in the test with A2780 (Homo sapiens, A2780, 96 h); 2.18 µM in the test on A549 (Homo sapiens, A549, 96 h); 2.74 µM in the test on DLD-1 (Homo sapiens, DLD-1, 96 h); 2.38 µM in test [2] (Homo sapiens, Lipo, 96 h).

As to `CCOC(=O)[C@@]1(C)CC[C@]2(C)CC[C@]3(C)C(=CC(=O)[C@@H]4[C@@]5(C)CC[C@H](OC(=O)CN)C(C)(C)[C@@H]5CC[C@]43C)[C@@H]2C1`, the IC50 came out at 5.32 µM in the test with 8505C (Homo sapiens, 8505C, 96 h); 3.59 µM in test [1] (Homo sapiens, A253, 96 h); 3.9 µM in the test on A2780 (Homo sapiens, A2780, 96 h); 5.39 µM in the test on A549 (Homo sapiens, A549, 96 h); 5.61 µM in the test on DLD-1 (Homo sapiens, DLD-1, 96 h); 4.32 µM in test [2] (Homo sapiens, Lipo, 96 h).

With `CC1(C)[C@@H](OC(=O)CCN)CC[C@]2(C)[C@H]3C(=O)C=C4[C@@H]5C[C@@](C)(C(=O)OCc6ccccc6)CC[C@]5(C)CC[C@@]4(C)[C@]3(C)CC[C@@H]12`, the IC50 in the test with 8505C (Homo sapiens, 8505C, 96 h) was determined as 3.19 µM; in test [1] (Homo sapiens, A253, 96 h), 3.05 µM; with A2780 (Homo sapiens, A2780, 96 h), 1.73 µM; in the test on A549 (Homo sapiens, A549, 96 h), 2.76 µM; in the test on DLD-1 (Homo sapiens, DLD-1, 96 h), 4.54 µM; in test [2] (Homo sapiens, Lipo, 96 h), 3.25 µM.

With `COC(=O)[C@@]1(C)CC[C@]2(C)CC[C@]3(C)C(=CC(=O)[C@@H]4[C@@]5(C)CC[C@H](OC(=O)[C@H](C)N)C(C)(C)[C@@H]5CC[C@]43C)[C@@H]2C1`, the IC50 amounted to 3.58 µM in the test with 8505C (8505c); 3.5 µM in test [1] (a253); 2.31 µM with A2780 (a2780); 3.52 µM with A549 (a549); 3.61 µM in the test with DLD-1 (dld-1); 3.52 µM in test [2] (lipo). Also, the figures for the IC50 in the test on MCF7 (mcf7) and in the test on SW-1736 (sw-1736) were 3.89 µM and 3.98 µM, respectively.

In the case of `COC(=O)[C@@]1(C)CC[C@]2(C)CC[C@]3(C)C(=CC(=O)[C@@H]4[C@@]5(C)CC[C@H](OC(=O)CCN)C(C)(C)[C@@H]5CC[C@]43C)[C@@H]2C1` [listing 1 of 2 here], the IC50 with 8505C (Homo sapiens, 8505C, 96 h) stood at 2.55 µM; in test [1] (Homo sapiens, A253, 96 h), 2.5 µM; in the test with A2780 (Homo sapiens, A2780, 96 h), 1.72 µM; with A549 (Homo sapiens, A549, 96 h), 2.4 µM; with DLD-1 (Homo sapiens, DLD-1, 96 h) it was 2.51 µM; in test [2] (Homo sapiens, Lipo, 96 h) it was 2.52 µM. For the same compound, the IC50 in the test with MCF7 (Homo sapiens, MCF7, 96 h) is 2.5 µM; with SW-1736 (Homo sapiens, SW-1736, 96 h) it was 1.82 µM.

Take `COC(=O)[C@@]1(C)CC[C@]2(C)CC[C@]3(C)C(=CC(=O)[C@@H]4[C@@]5(C)CC[C@H](OC(=O)CN)C(C)(C)[C@@H]5CC[C@]43C)[C@@H]2C1` [listing 1 of 2 here]: the IC50 in the test with 8505C (Homo sapiens, 8505C, 96 h) worked out at 7.45 µM; in test [1] (Homo sapiens, A253, 96 h) it was 6.26 µM; in the test with A2780 (Homo sapiens, A2780, 96 h), 5.99 µM; in the test on A549 (Homo sapiens, A549, 96 h), 6.42 µM; in the test with DLD-1 (Homo sapiens, DLD-1, 96 h), 8.59 µM; in test [2] (Homo sapiens, Lipo, 96 h) it was 7.54 µM. Moreover, the IC50 turned out to be 7.1 µM in the test with MCF7 (Homo sapiens, MCF7, 96 h) and 6.33 µM in the test with SW-1736 (Homo sapiens, SW-1736, 96 h).

Regarding `C[C@H](N)C(=O)O[C@H]1CC[C@]2(C)[C@H]3C(=O)C=C4[C@@H]5C[C@@](C)(C(=O)OCc6ccccc6)CC[C@]5(C)CC[C@@]4(C)[C@]3(C)CC[C@H]2C1(C)C`, the IC50 was 3.1 µM with 8505C (Homo sapiens, 8505C, 96 h); 3.49 µM in test [1] (Homo sapiens, A253, 96 h); 2.85 µM in the test on A2780 (Homo sapiens, A2780, 96 h); 3.51 µM in the test on A549 (Homo sapiens, A549, 96 h); 5.02 µM with DLD-1 (Homo sapiens, DLD-1, 96 h); 3.57 µM in test [2] (Homo sapiens, Lipo, 96 h).

`CC(C)OC(=O)[C@@]1(C)CC[C@]2(C)CC[C@]3(C)C(=CC(=O)[C@@H]4[C@@]5(C)CC[C@H](OC(=O)CCN)C(C)(C)[C@@H]5CC[C@]43C)[C@@H]2C1`: the IC50 is 1.96 µM with 8505C (Homo sapiens, 8505C, 96 h); 2.68 µM in test [1] (Homo sapiens, A253, 96 h); 1.31 µM in the test with A2780 (Homo sapiens, A2780, 96 h); 1.78 µM in the test with A549 (Homo sapiens, A549, 96 h); 3.52 µM in the test on DLD-1 (Homo sapiens, DLD-1, 96 h); 3.49 µM in test [2] (Homo sapiens, Lipo, 96 h).

`COC(=O)[C@@]1(C)CC[C@]2(C)CC[C@]3(C)C(=CC(=O)[C@@H]4[C@@]5(C)CC[C@H](OC(=O)CN)C(C)(C)[C@@H]5CC[C@]43C)[C@@H]2C1` [listing 2 of 2 here]: the IC50 came to 5.71 µM with 8505C (8505c); 5.5 µM in test [1] (a253); 4.32 µM with A2780 (a2780); 5.54 µM in the test on A549 (a549); 6.42 µM in the test on DLD-1 (dld-1); 5.92 µM in test [2] (lipo). Moreover, the IC50 in the test on MCF7 (mcf7) was found to be 5.73 µM; in the test with SW-1736 (sw-1736) it was 5.62 µM.

As for `CC1(C)[C@@H](OC(=O)CN)CC[C@]2(C)[C@H]3C(=O)C=C4[C@@H]5C[C@@](C)(C(=O)OCc6ccccc6)CC[C@]5(C)CC[C@@]4(C)[C@]3(C)CC[C@@H]12`, the IC50 is 4.79 µM in the test on 8505C (Homo sapiens, 8505C, 96 h); 5.03 µM in test [1] (Homo sapiens, A253, 96 h); 3.54 µM in the test on A2780 (Homo sapiens, A2780, 96 h); 5.07 µM with A549 (Homo sapiens, A549, 96 h); 4.54 µM with DLD-1 (Homo sapiens, DLD-1, 96 h); 4.81 µM in test [2] (Homo sapiens, Lipo, 96 h).

`CC1(C)[C@@H](OC(=O)CCN)CC[C@]2(C)[C@H]3C(=O)C=C4[C@@H]5C[C@@](C)(C(=O)O)CC[C@]5(C)CC[C@@]4(C)[C@]3(C)CC[C@@H]12`: the IC50 was > 30 µM in the test on 8505C (Homo sapiens, 8505C, 96 h); > 30 µM in test [1] (Homo sapiens, A253, 96 h); > 30 µM with A2780 (Homo sapiens, A2780, 96 h); > 30 µM in the test with A549 (Homo sapiens, A549, 96 h); > 30 µM in the test with DLD-1 (Homo sapiens, DLD-1, 96 h); > 30 µM in test [2] (Homo sapiens, Lipo, 96 h).

Turning to `C[C@H](N)C(=O)O[C@H]1CC[C@]2(C)[C@H]3C(=O)C=C4[C@@H]5C[C@@](C)(C(=O)O)CC[C@]5(C)CC[C@@]4(C)[C@]3(C)CC[C@H]2C1(C)C`, the IC50 in the test on 8505C (Homo sapiens, 8505C, 96 h) is > 30 µM; in test [1] (Homo sapiens, A253, 96 h), > 30 µM; with A2780 (Homo sapiens, A2780, 96 h), > 30 µM; in the test on A549 (Homo sapiens, A549, 96 h), > 30 µM; in the test on DLD-1 (Homo sapiens, DLD-1, 96 h), > 30 µM; in test [2] (Homo sapiens, Lipo, 96 h) it was > 30 µM.

Turning to `COC(=O)[C@@]1(C)CC[C@]2(C)CC[C@]3(C)C(=CC(=O)[C@@H]4[C@@]5(C)CC[C@H](OC(=O)CCN)C(C)(C)[C@@H]5CC[C@]43C)[C@@H]2C1` [listing 2 of 2 here], the IC50 is 2.51 µM in the test with 8505C (8505c); 2.51 µM in test [1] (a253); 1.56 µM with A2780 (a2780); 1.61 µM in the test on A549 (a549); 3.52 µM in the test with DLD-1 (dld-1); 3.55 µM in test [2] (lipo). In addition, the IC50 stood at 2.43 µM in the test with MCF7 (mcf7) and 2.48 µM in the test on SW-1736 (sw-1736).

As for `CC1(C)[C@@H](OC(=O)CN)CC[C@]2(C)[C@H]3C(=O)C=C4[C@@H]5C[C@@](C)(C(=O)O)CC[C@]5(C)CC[C@@]4(C)[C@]3(C)CC[C@@H]12`, the IC50 with 8505C (Homo sapiens, 8505C, 96 h) was > 30 µM; in test [1] (Homo sapiens, A253, 96 h), > 30 µM; in the test with A2780 (Homo sapiens, A2780, 96 h) it was > 30 µM; with A549 (Homo sapiens, A549, 96 h) it was > 30 µM; in the test on DLD-1 (Homo sapiens, DLD-1, 96 h) it was > 30 µM; in test [2] (Homo sapiens, Lipo, 96 h) it was > 30 µM.

For the origin of these results see ChEMBL document CHEMBL1268974, “Synthesis and antitumour activity of glycyrrhetinic acid derivatives” (Bioorg Med Chem, 2010).
